Like-named read-outs stand apart in the source and are kept apart here.
Tests used:
[1] = molecular target: p38α activated, mitogen-activated protein kinase-activated protein kinase 2 (MAPKAP-K2 or MK2) enzyme (Homo sapiens (Human), UniProt P49137); assay: MK2 Omnia continuous-read kinase assay for compound potency; type: biochemical
Excerpt: Mitogen-Activated Protein Kinase-Activated Protein Kinase 2 Omnia® Assay for Compound Potency Assessment:
The protocol below describes a continuous-read kinase assay optimized to measure potency of compounds against p38α activated, mitogen-activated protein kinase-activated protein kinase 2 (MAPKAP-K2 or MK2) enzyme. Further details of this assay are described by Life Technologies, Carlsbad, Calif. on their website at the following URL: http://tools.lifetechnologies.com/content/sfs/manuals/omnia_kinase_assay_man.pdf.
[Reagent] used: • [MK-2]=0.4 nM, • [ATP]=10 μM and • [ST3-Sox]=10 μM (ATP^appKM=10 μM)
Kinase reactions were started with the addition of 45 μL of the ATP-peptide substrate S/T3-Sox mix and monitored every 71 seconds for 120 minutes at λex360/λem485 in a Synergy H4 plate reader from BioTek (Winooski, Vt.) at room temperature.
Background signals from the no enzyme control wells were subtracted from all progress curves. The initial linear portions of the net progress curves were fit according to a linear equation to yield the slope and percentage of inhibition (% inhibition) at each compound concentration. The net progress curves obtained during the first two hours of reactions were also fit according to an ascending single-exponential equation (Eq. 1) to yield kobs values at each compound concentration. Plots of % Inhibition versus inhibitor concentrations were fit according to a dose-response equation (Eq. 2) to generate IC50 and Hill slope values while plots of kobs versus inhibitor concentration were fit according to Equation 3 (Eq. 3) to generate apparent kinact/KI values using the GraphPad PRISM software (Version 6.00; GraphPad San Diego, Calif.).
[formula] where F is the fluorescence intensity from the plate reader, V0 is a constant reflecting the relationship between the instrument readout and product concentration, t is time, e is Euler's number, and kobs is the observed inactivation rate constant.
[formula] where % Inhibition is percentage of inhibition, IC50 is half maximal inhibitory concentration, [I] is the inhibitor concentration, and n is the Hill slope.

[2] = molecular target: T1, MK2 (Homo sapiens (Human), UniProt P49137); assay: MK2 cellular assay, total and phospho-Hsp27 (Serine 78) by MSD ELISA (Thp1); type: cell-based
Description: MK2 Cellular Assay—Detection of Total and Phospho-Hsp27 (Serine 78) by MSD ELISA (Thp1)
Compounds of the invention were assayed in Thp-1 human acute monocytic leukemia cells to measure inhibition of MK2 activity. Thp-1 cells were grown in culture medium containing RPMI/10% FBS (fetal bovine serum)/0.05 mM 2-mercaptoethanol. 72 hours prior to the assay, 8×10^4 cells per well were plated in a 96 well flat bottom plate along with 10 ng/mL phorbol 12-myristate 13-acetate (PMA). Cells were cultured in an incubator at 37° C. until needed for the assay. Cell plate media was replaced with culture media just prior to assay while compound dilutions were being made.
Stock solutions of test compound, 1 mM in DMSO, were prepared. 0.9 μl of test compound was added to 300 μl cell media for a starting concentration of 3000 nM. […] Cell plate media was discarded, followed by addition of 100 μl of the compound containing media. The resulting preparation was incubated at 37° C. for 1 hour.
Test compound-containing cell assay media was removed and the cells were washed once with cell assay media. Cell assay media containing 50 ng/mL LPS (lipopolysaccharide) was added to the each well and incubated for 45 minutes. Following LPS incubation, the cells were washed once with PBS (phosphate-buffered saline) and lysed with 60 μl Cell Extraction Buffer (Invitrogen #FNN0011) plus protease and phosphatase inhibitors. The plate was then stored at −80° C. until further analysis.
The MULTI-SPOT Phospho(Ser78)/Total HSP27 ELISA Assay kit was purchased from Meso Scale […] (MSD; catalog #K15128D). […] The pre-coated MSD plate was blocked with 150 μL/well of 3% BSA in MSD wash buffer. The preparation was placed on a shaker at room temperature for an hour. While the ELISA plate was blocked, the cell assay plate stored at −80° C. was placed on a shaker at 4° C. for 1 hour to thaw.
The blocked MSD plate was washed on a plate washer, tapping out the last bit of wash solution, followed by addition of 30 μl of the lysate from the cell assay plate. The preparation was covered and incubated for 1 hour at room temperature. The lysate was removed, the plate was washed 3 times on a plate washer and the last bit of wash buffer was tapped out and replaced with 25 μl/well detection antibody (anti-total HSP27 conjugated with an electrochemiluminescent compound, MSD SULFO-TAG label, supplied in kit) made in 1% BSA/MSD wash buffer. The plate was incubated for 1 hour at room temperature on a shaker, followed by 3 washes. The last bit of wash buffer was tapped out. 150 μl/well 1×MSD read buffer was added (4× read buffer supplied with kit) and the plate was analyzed on the MSD SECTOR® Imager for analysis. The SECTOR® Imager measures intensity of emitted light to provide a quantitative measure of phosphorylated HSP27 (Ser78) and total HSP27 present in the sample. The relative percent phosphoprotein in a sample is calculated by dividing the Phospho-HSP27 signal intensity over the total HSP27 signal intensity measured in each well.

[3] = molecular target: T1, MK2
[4] = [MK-2]=0.4 nM, [ATP]=10 μM, [ST3-Sox]=10 μM, read-out: MK2 IC50
[5] = Thp-1 cells, 1 hour compound, 50 ng/mL LPS 45 minutes, p-HSP27 (Ser78)/total HSP27, read-out: pHSP27 signaling EC50
[6] = percentage of modified protein after 60 minutes at room temperature, 10-fold excess of compound, MALDI (I-1 to I-50), magnetic bead MALDI (I-51 to I-129)
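Throughout, for Mass Modification: covalent binding read from centroid mass shift of compound-treated versus untreated intact MK2, shift divided by compound molecular weight, giving fraction of total protein bound.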

T1 sequence (P49137 whole entry): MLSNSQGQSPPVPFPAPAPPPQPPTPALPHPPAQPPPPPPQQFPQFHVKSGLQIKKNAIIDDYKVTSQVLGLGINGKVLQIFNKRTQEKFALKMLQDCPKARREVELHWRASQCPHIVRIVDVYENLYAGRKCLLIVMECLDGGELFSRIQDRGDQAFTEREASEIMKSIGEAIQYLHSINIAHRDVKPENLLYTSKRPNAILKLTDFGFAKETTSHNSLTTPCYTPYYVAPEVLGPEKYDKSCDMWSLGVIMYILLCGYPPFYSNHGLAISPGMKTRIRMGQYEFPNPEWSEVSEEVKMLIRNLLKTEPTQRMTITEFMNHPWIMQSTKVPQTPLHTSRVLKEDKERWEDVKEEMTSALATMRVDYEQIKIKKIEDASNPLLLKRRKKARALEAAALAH
Chain of p38α activated, mitogen-activated protein kinase-activated protein kinase 2 (MAPKAP-K2 or MK2) enzyme (P49137 whole entry): as above

IC50 [1]	EC50 [2]	Structure (SMILES)	IC50 [1, 4]	EC50 [2, 5]	Mass Modification [3, 6]	IC50 ([1]; read-out: MK2 IC50)	Mass Modification [3]
		O=C1N[C@H](CO)CNc2c1sc1ccc3nc(Nc4cc(F)ncn4)ccc3c21 [I-17, (S)-3-((6-fluoropyrimidin-4-yl)amino)-10-(hydroxymethyl)-9,10,11,12-tetrahydro-8H-[1,4]diazepino[5′,6′:4,5]thieno[3,2-f]quinolin-8-one]	< 100 nM	> 1000 nM	F (mass modification of 31-69%)		
		CCOC(=O)c1cnc(Cl)nc1Nc1ccc2c(ccc3sc4c(c32)NC[C@@H](C)NC4=O)n1 [I-18, (R)-ethyl 2-chloro-4-((10-methyl-8-oxo-9,10,11,12-tetrahydro-8H-[1,4]diazepino[5′,6′:4,5]thieno[3,2-f]quinolin-3-yl)amino)pyrimidine-5-carboxylate]	< 100 nM	101 to 500 nM	F (mass modification of 31-69%)		
		O=C1N[C@H](CO)CNc2c1sc1ccc3nc(Nc4cc(Cl)ncn4)ccc3c21 [I-22, (S)-3-((6-chloropyrimidin-4-yl)amino)-10-(hydroxymethyl)-9,10,11,12-tetrahydro-8H-[1,4]diazepino[5′,6′:4,5]thieno[3,2-f]quinolin-8-one]	< 100 nM	501 to 999 nM	F (mass modification of 31-69%)		
		C[C@@H]1CNc2c(sc3ccc4nc(Nc5nc(Cl)ncc5C(=O)N5CC[C@@H](N(C)C)C5)ccc4c23)C(=O)N1 [I-24, (R)-3-((2-chloro-5-((R)-3-(dimethylamino)pyrrolidine-1-carbonyl)pyrimidin-4-yl)amino)-10-methyl-9,10,11,12-tetrahydro-8H-[1,4]diazepino[5′,6′:4,5]thieno[3,2-f]quinolin-8-one]	501 to 999 nM	> 1000 nM	G (mass modification ≦30%)		
		C[C@@H]1CNc2c(sc3ccc4nc(Nc5cc(Cl)ncc5C#N)ccc4c23)C(=O)N1 [I-25, (R)-6-chloro-4-((10-methyl-8-oxo-9,10,11,12-tetrahydro-8H-[1,4]diazepino[5′,6′:4,5]thieno[3,2-f]quinolin-3-yl)amino)nicotinonitrile]		< 100 nM		< 100 nM	F (key: E: mass modification of ≧70%; F: mass modification of 31-69%; G: mass modification ≦30%)
		NC[C@@H]1CNc2c(sc3ccc4nc(Nc5cc(F)ncn5)ccc4c23)C(=O)N1 [I-26, (R)-10-(aminomethyl)-3-((6-fluoropyrimidin-4-yl)amino)-9,10,11,12-tetrahydro-8H-[1,4]diazepino[5′,6′:4,5]thieno[3,2-f]quinolin-8-one]	< 100 nM	> 1000 nM	E (mass modification of ≧70%)		
		C[C@@H]1CNc2c(sc3ccc4nc(Nc5cc(F)ncc5C#N)ccc4c23)C(=O)N1 [I-27, (R)-6-fluoro-4-((10-methyl-8-oxo-9,10,11,12-tetrahydro-8H-[1,4]diazepino[5′,6′:4,5]thieno[3,2-f]quinolin-3-yl)amino)nicotinonitrile]	< 100 nM	< 100 nM	G (mass modification ≦30%)		
		NC[C@@H]1CNc2c(sc3ccc4nc(Nc5cc(Cl)ncn5)ccc4c23)C(=O)N1 [I-28, (R)-10-(aminomethyl)-3-((6-chloropyrimidin-4-yl)amino)-9,10,11,12-tetrahydro-8H-[1,4]diazepino[5′,6′:4,5]thieno[3,2-f]quinolin-8-one]	< 100 nM	> 1000 nM	E (mass modification of ≧70%)		
		C[C@@H]1CNc2c(sc3ccc4nc(Nc5cc(F)ncc5C(N)=O)ccc4c23)C(=O)N1 [I-29, (R)-6-fluoro-4-((10-methyl-8-oxo-9,10,11,12-tetrahydro-8H-[1,4]diazepino[5′,6′:4,5]thieno[3,2-f]quinolin-3-yl)amino)nicotinamide]	< 100 nM	> 1000 nM	G (mass modification ≦30%)		
		NC(=O)c1cnc(Cl)nc1Nc1ccc2c(ccc3sc4c(c32)NC[C@@H](CO)NC4=O)n1 [I-30, (S)0-2-chloro-4-((10-(hydroxymethyl)-8-oxo-9,10,11,12-tetrahydro-8H-[1,4]diazepino[5′,6′:4,5]thieno[3,2-f]quinolin-3-yl)amino)pyrimidine-5-carboxamide]	< 100 nM	101 to 500 nM	E (mass modification of ≧70%)		
501 to 999 nM	> 1000 nM	C[C@@H]1CNc2c(sc3ccc4nc(N(CCN(C)C)c5cc(F)ncn5)ccc4c23)C(=O)N1 [I-33, (R)-3-((2-(dimethylamino)ethyl)(6-fluoropyrimidin-4-yl)amino)-10-methyl-9,10,11,12-tetrahydro-8H-[1,4]diazepino[5′,6′:4,5]thieno[3,2-f]quinolin-8-one]			F (mass modification of 31-69%)		
		C[C@@H]1CNc2c(sc3ccc4nc(N(C)c5nc(Cl)ncc5C(N)=O)ccc4c23)C(=O)N1 [I-34, (R)-2-chloro-4-(methyl(10-methyl-8-oxo-9,10,11,12-tetrahydro-8H-[1,4]diazepino[5′,6′:4,5]thieno[3,2-f]quinolin-3-yl)amino)pyrimidine-5-carboxamide]	501 to 999 nM	> 1000 nM	G (mass modification ≦30%)		
		CNC[C@@H]1CNc2c(sc3ccc4nc(Nc5cc(F)ncn5)ccc4c23)C(=O)N1 [I-35]	101 to 500 nM	501 to 999 nM	F (mass modification of 31-69%)		
	> 1000 nM	C[C@@H]1CNc2c(sc3ccc4nc(N(C)c5cc(F)ncn5)ccc4c23)C(=O)N1 [I-38, (R)-3-((6-fluoropyrimidin-4-yl)(methyl)amino)-10-methyl-9,10,11,12-tetrahydro-8H-[1,4]diazepino[5′,6′:4,5]thieno[3,2-f]quinolin-8-one]	< 100 nM		G (mass modification ≦30%)		
	501 to 999 nM	C[C@@H]1CNc2c(sc3ccc4nc(Nc5nc(F)cc(OC6COC6)n5)ccc4c23)C(=O)N1 [I-42, (R)-3-((4-fluoro-6-(oxetan-3-yloxy)pyrimidin-2-yl)amino)-10-methyl-9,10,11,12-tetrahydro-8H-[1,4]diazepino[5′,6′:4,5]thieno[3,2-f]quinolin-8-one]	< 100 nM		G (mass modification ≦30%)		
